Data published in ChEMBL document CHEMBL4190267, “Discovery of potent molecular chimera (CM358) to treat human metastatic melanoma” (Eur J Med Chem, 2017).
Active and inactive are the calls of the source. The rule behind the calls is not given here.

Tests used:
[1] = system: PC-3; assay: Growth inhibition of human PC3 cells preincubated for 6 hrs followed compound washout measured after 24 hrs by XTT assay; format: functional
[2] = system: PC-3; assay: Growth inhibition of human PC3 cells preincubated for 6 hrs cotreated with amonafide followed compound washout measured after 24 hrs by XTT assay; format: functional
[3] = system: MDA-MB-231; assay: Growth inhibition of human MDA-MB-231 cells preincubated for 6 hrs followed compound washout measured after 24 hrs by XTT assay; format: functional
[4] = system: MDA-MB-231; assay: Growth inhibition of human MDA-MB-231 cells preincubated for 6 hrs cotreated with amonafide followed compound washout measured after 24 hrs by XTT assay; format: functional
[5] = system: WM 266-4; assay: Growth inhibition of human WM266.4 cells preincubated for 6 hrs followed compound washout measured after 24 hrs by XTT assay; format: functional
[6] = system: WM 266-4; assay: Growth inhibition of human WM266.4 cells preincubated for 6 hrs cotreated with amonafide followed compound washout measured after 24 hrs by XTT assay; format: functional
[7] = system: A 172; assay: Growth inhibition of human A172 cells preincubated for 6 hrs followed compound washout measured after 24 hrs by XTT assay; format: functional
[8] = system: A 172; assay: Growth inhibition of human A172 cells preincubated for 6 hrs cotreated with amonafide followed compound washout measured after 24 hrs by XTT assay; format: functional
[9] = system: NCI-H1299; assay: Growth inhibition of human NCI-H1299 cells preincubated for 6 hrs followed compound washout measured after 24 hrs by XTT assay; format: functional
[10] = system: NCI-H1299; assay: Growth inhibition of human NCI-H1299 cells preincubated for 6 hrs cotreated with amonafide followed compound washout measured after 24 hrs by XTT assay; format: functional
[11] = system: WM 266-4; assay: Cell cycle arrest in human WM266.4 cells assessed as accumulation at G1 phase at 10 uM cotreated with amonafide after 2 hrs by propidium iodide staining based flow cytometry (reference value: 59%); format: functional
[12] = system: WM 266-4; assay: Cell cycle arrest in human WM266.4 cells assessed as accumulation at S phase at 10 uM cotreated with amonafide after 2 hrs by propidium iodide staining based flow cytometry (reference value: 27%); format: functional
[13] = system: WM 266-4; assay: Cell cycle arrest in human WM266.4 cells assessed as accumulation at G2 phase at 10 uM cotreated with amonafide after 2 hrs by propidium iodide staining based flow cytometry (reference value: 11%); format: functional
[14] = system: WM 266-4; assay: Cell cycle arrest in human WM266.4 cells assessed as accumulation at G1 phase at 10 uM cotreated with amonafide after 8 hrs by propidium iodide staining based flow cytometry (reference value: 59%); format: functional
[15] = system: WM 266-4; assay: Cell cycle arrest in human WM266.4 cells assessed as accumulation at S phase at 10 uM cotreated with amonafide after 8 hrs by propidium iodide staining based flow cytometry (reference value: 27%); format: functional
[16] = system: WM 266-4; assay: Cell cycle arrest in human WM266.4 cells assessed as accumulation at G2 phase at 10 uM cotreated with amonafide after 8 hrs by propidium iodide staining based flow cytometry (reference value: 11%); format: functional
[17] = system: WM 266-4; assay: Cell cycle arrest in human WM266.4 cells assessed as accumulation at G1 phase at 10 uM cotreated with amonafide after 24 hrs by propidium iodide staining based flow cytometry (reference value: 59%); format: functional
[18] = system: WM 266-4; assay: Cell cycle arrest in human WM266.4 cells assessed as accumulation at S phase at 10 uM cotreated with amonafide after 24 hrs by propidium iodide staining based flow cytometry (reference value: 27%); format: functional
[19] = system: WM 266-4; assay: Cell cycle arrest in human WM266.4 cells assessed as accumulation at G2 phase at 10 uM cotreated with amonafide after 24 hrs by propidium iodide staining based flow cytometry (reference value: 11%); format: functional
[20] = system: WM 266-4; assay: (§1) Antitumor activity against human WM266.4 cells xenografted in athymic Foxn1 nu mouse assessed as tumor growth inhibition at 10 mg/kg, ip cotreated with amonafide administered once daily for 3 days followed by resting period of 4 days repeated for 4 weeks starting from 5 days post tumor inoculation; format: functional, organism-based
[21] = system: WM 266-4; assay: (§2) Antitumor activity against human WM266.4 cells xenografted in athymic Foxn1 nu mouse assessed as tumor growth inhibition at 10 mg/kg, ip cotreated with amonafide administered once daily for 7 days followed by resting period of 2 days repeated for 4 weeks starting from 5 days post tumor inoculation; format: functional, organism-based
[22] = system: Mus musculus; assay: Toxicity in athymic Foxn1 nu mouse xenografted with human WM266.4 cells assessed as body weight loss at 10 mg/kg, ip cotreated with amonafide administered once daily for 7 days followed by resting period of 2 days repeated for 4 weeks starting from 5 days post tumor inoculation; format: organism-based; conditions: in vivo
[23] = system: Mus musculus; assay: Toxicity in athymic Foxn1 nu mouse xenografted with human WM266.4 cells assessed as body weight loss at 10 mg/kg, ip cotreated with amonafide administered once daily for 3 days followed by resting period of 4 days repeated for 4 weeks starting from 5 days post tumor inoculation; format: organism-based; conditions: in vivo
[24] = system: PC-3; assay: Growth inhibition of human PC3 cells preincubated for 6 hrs cotreated with chlorambucil followed compound washout measured after 24 hrs by XTT assay; format: functional
[25] = system: MDA-MB-231; assay: Growth inhibition of human MDA-MB-231 cells preincubated for 6 hrs cotreated with chlorambucil followed compound washout measured after 24 hrs by XTT assay; format: functional
[26] = system: WM 266-4; assay: Growth inhibition of human WM266.4 cells preincubated for 6 hrs cotreated with chlorambucil followed compound washout measured after 24 hrs by XTT assay; format: functional
[27] = system: A 172; assay: Growth inhibition of human A172 cells preincubated for 6 hrs cotreated with chlorambucil followed compound washout measured after 24 hrs by XTT assay; format: functional
[28] = system: NCI-H1299; assay: Growth inhibition of human NCI-H1299 cells preincubated for 6 hrs cotreated with chlorambucil followed compound washout measured after 24 hrs by XTT assay; format: functional
[29] = system: WM 266-4; assay: Cell cycle arrest in human WM266.4 cells assessed as accumulation at G1 phase at 10 uM cotreated with chlorambucil after 2 hrs by propidium iodide staining based flow cytometry (reference value: 59%); format: functional
[30] = system: WM 266-4; assay: Cell cycle arrest in human WM266.4 cells assessed as accumulation at S phase at 10 uM cotreated with chlorambucil after 2 hrs by propidium iodide staining based flow cytometry (reference value: 27%); format: functional
[31] = system: WM 266-4; assay: Cell cycle arrest in human WM266.4 cells assessed as accumulation at G2 phase at 10 uM cotreated with chlorambucil after 2 hrs by propidium iodide staining based flow cytometry (reference value: 11%); format: functional
[32] = system: WM 266-4; assay: Cell cycle arrest in human WM266.4 cells assessed as accumulation at G1 phase at 10 uM cotreated with chlorambucil after 8 hrs by propidium iodide staining based flow cytometry (reference value: 59%); format: functional
[33] = system: WM 266-4; assay: Cell cycle arrest in human WM266.4 cells assessed as accumulation at S phase at 10 uM cotreated with chlorambucil after 8 hrs by propidium iodide staining based flow cytometry (reference value: 27%); format: functional
[34] = system: WM 266-4; assay: Cell cycle arrest in human WM266.4 cells assessed as accumulation at G2 phase at 10 uM cotreated with chlorambucil after 8 hrs by propidium iodide staining based flow cytometry (reference value: 11%); format: functional
[35] = system: WM 266-4; assay: Cell cycle arrest in human WM266.4 cells assessed as accumulation at G1 phase at 10 uM cotreated with chlorambucil after 24 hrs by propidium iodide staining based flow cytometry (reference value: 59%); format: functional
[36] = system: WM 266-4; assay: Cell cycle arrest in human WM266.4 cells assessed as accumulation at S phase at 10 uM cotreated with chlorambucil after 24 hrs by propidium iodide staining based flow cytometry (reference value: 27%); format: functional
[37] = system: WM 266-4; assay: Cell cycle arrest in human WM266.4 cells assessed as accumulation at G2 phase at 10 uM cotreated with chlorambucil after 24 hrs by propidium iodide staining based flow cytometry (reference value: 11%); format: functional
[38] = biological target: DNA topoisomerase 2-alpha (Homo sapiens) (UniProt P11388); assay: Inhibition of human topoisomerase-2alpha assessed as reduction in enzyme-mediated decatenation at 100 uM using kinetoplast DNA as substrate after 25 mins by ethidium bromide staining based agarose gel electrophoresis method
DNA topoisomerase 2-alpha (Homo sapiens), sequence (P11388 whole entry): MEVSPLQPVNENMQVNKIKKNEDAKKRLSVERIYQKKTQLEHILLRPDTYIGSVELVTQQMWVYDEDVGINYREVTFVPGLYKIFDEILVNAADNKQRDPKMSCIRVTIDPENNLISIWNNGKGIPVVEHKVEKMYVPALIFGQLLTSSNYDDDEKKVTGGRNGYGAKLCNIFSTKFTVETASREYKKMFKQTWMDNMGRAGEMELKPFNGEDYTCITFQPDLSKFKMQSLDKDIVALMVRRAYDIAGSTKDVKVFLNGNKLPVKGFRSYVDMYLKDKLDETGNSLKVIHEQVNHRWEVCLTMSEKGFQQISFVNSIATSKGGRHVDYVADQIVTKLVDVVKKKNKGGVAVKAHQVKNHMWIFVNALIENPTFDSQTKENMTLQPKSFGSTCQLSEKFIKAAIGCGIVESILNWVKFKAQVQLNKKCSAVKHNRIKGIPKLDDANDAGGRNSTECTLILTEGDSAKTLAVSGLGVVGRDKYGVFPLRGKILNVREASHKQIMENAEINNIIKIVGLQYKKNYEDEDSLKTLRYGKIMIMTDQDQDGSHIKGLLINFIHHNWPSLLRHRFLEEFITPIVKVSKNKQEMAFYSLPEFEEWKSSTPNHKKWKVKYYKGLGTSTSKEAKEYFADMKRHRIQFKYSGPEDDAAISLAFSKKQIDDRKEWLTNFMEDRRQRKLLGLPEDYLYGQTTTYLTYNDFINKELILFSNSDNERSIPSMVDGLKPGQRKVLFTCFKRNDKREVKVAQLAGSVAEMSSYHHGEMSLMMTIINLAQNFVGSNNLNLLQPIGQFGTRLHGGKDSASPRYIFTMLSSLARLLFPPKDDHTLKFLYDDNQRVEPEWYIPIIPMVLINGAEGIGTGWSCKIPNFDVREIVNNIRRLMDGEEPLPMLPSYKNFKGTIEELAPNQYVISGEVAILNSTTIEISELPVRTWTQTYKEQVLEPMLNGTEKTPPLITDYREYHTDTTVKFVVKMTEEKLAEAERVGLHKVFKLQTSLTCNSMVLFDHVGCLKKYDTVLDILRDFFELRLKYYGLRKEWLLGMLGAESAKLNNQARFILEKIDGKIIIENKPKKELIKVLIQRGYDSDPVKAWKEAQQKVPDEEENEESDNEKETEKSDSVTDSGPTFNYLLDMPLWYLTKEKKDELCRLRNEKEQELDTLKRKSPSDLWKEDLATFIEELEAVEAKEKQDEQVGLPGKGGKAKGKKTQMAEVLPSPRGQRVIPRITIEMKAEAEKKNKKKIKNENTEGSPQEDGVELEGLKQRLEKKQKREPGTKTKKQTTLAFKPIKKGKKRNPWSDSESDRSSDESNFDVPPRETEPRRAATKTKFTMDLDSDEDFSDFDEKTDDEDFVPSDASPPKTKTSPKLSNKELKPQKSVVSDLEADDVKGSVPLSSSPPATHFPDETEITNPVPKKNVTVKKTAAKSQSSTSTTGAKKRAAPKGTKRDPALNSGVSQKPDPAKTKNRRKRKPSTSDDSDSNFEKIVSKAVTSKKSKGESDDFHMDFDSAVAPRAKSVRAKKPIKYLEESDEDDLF

[39] = biological target: DNA topoisomerase 2-alpha (Homo sapiens) (UniProt P11388); assay: Inhibition of human topoisomerase-2alpha assessed as reduction in enzyme-mediated decatenation at 25 uM using kinetoplast DNA as substrate after 25 mins by ethidium bromide staining based agarose gel electrophoresis method
[40] = system: WM 266-4; assay: as §2, with “chlorambucil” for “amonafide”; format: functional, organism-based
[41] = system: WM 266-4; assay: as §1, with “chlorambucil” for “amonafide”; format: functional, organism-based
[42] = system: Mus musculus; assay: Toxicity in athymic Foxn1 nu mouse xenografted with human WM266.4 cells assessed as body weight loss at 10 mg/kg, ip cotreated with chlorambucil administered once daily for 7 days followed by resting period of 2 days repeated for 4 weeks starting from 5 days post tumor inoculation; format: organism-based; conditions: in vivo
[43] = system: Mus musculus; assay: Toxicity in athymic Foxn1 nu mouse xenografted with human WM266.4 cells assessed as body weight loss at 10 mg/kg, ip cotreated with chlorambucil administered once daily for 3 days followed by resting period of 4 days repeated for 4 weeks starting from 5 days post tumor inoculation; format: organism-based; conditions: in vivo
[44] = system: WM 266-4; assay: Growth inhibition of human WM266.4 cells at 25 uM after 24 hrs by XTT assay; format: functional, cell-based

SMILES: O=C(O)CCCc1ccc(N(CCCl)CCCl)cc1 [CHLORAMBUCIL]
- GI50 [1]: > 25 µM
- GI50 [2]: > 25 µM
- GI50 [3]: > 25 µM
- GI50 [4]: > 25 µM
- GI50 [5]: > 25 µM
- GI50 [6]: > 25 µM
- GI50 [7]: > 25 µM
- GI50 [8]: > 25 µM
- GI50 [9]: > 25 µM
- GI50 [10]: > 25 µM
- Activity [11]: 63.5%
- Activity [12]: 26%
- Activity [13]: 9.8%
- Activity [14]: 29%
- Activity [15]: 44.7%
- Activity [16]: 23%
- Activity [17]: 35%
- Activity [18]: 39%
- Activity [19]: 26%
- TGI [20]: inactive
- TGI [21]: inactive
- Activity [22]: Toxic
- Activity [23]: Toxic

SMILES: CN(C)CCN1C(=O)c2cccc3cc(N)cc(c23)C1=O [AMONAFIDE]
- GI50 [1]: > 25 µM
- GI50 [24]: > 25 µM
- GI50 [3]: > 25 µM
- GI50 [25]: > 25 µM
- GI50 [5]: > 25 µM
- GI50 [26]: > 25 µM
- GI50 [7]: > 25 µM
- GI50 [27]: > 25 µM
- GI50 [9]: > 25 µM
- GI50 [28]: > 25 µM
- Activity [29]: 63.5%
- Activity [30]: 26%
- Activity [31]: 9.8%
- Activity [32]: 29%
- Activity [33]: 44.7%
- Activity [34]: 23%
- Activity [35]: 35%
- Activity [36]: 39%
- Activity [37]: 26%
- inhibition [38]: Active
- inhibition [39]: inactive
- TGI [40]: inactive
- TGI [41]: inactive
- Activity [42]: Toxic
- Activity [43]: Toxic

SMILES: O=C(CCCc1ccc(N(CCCl)CCCl)cc1)Nc1ccn([C@@H]2O[C@H](CO)[C@@H](O)[C@@H]2O)c(=O)n1
- growth inhibition (GI) [1]: inactive
- growth inhibition (GI) [3]: inactive
- growth inhibition (GI) [5]: inactive
- growth inhibition (GI) [7]: inactive
- growth inhibition (GI) [9]: inactive

SMILES: CC(=O)Nc1cc2c3c(cccc3c1)C(=O)N(CCN(C)C)C2=O
- growth inhibition (GI) [44]: inactive
